Assay results taken from patent US20100010057A1, “THIAZOLE DERIVATIVES AS INHIBITORS OF P13 KINASE” (CHROMA THERAPEUTICS LTD., priority 2006, published 2010).

Assays:
PI3Kγ (human) = PI3Kγ (human) (Homo sapiens, UniProt P48736); assay: Inhibition of PI3 kinase γ activity (HTRF); type: biochemical; conditions: ATP at or close to Km, IC50 range, read-out: Inhibitor activity versus PI3 Kinase γ
Procedure: (B) Inhibition of PI3 Kinase V Activity
In a final reaction volume of 20 μl, PI3Kγ (human) is incubated in assay buffer containing 10 μM phosphatidylinositol-4,5-bisphosphate and MgATP (concentration as required). The reaction is initiated by the addition of the MgATP mix. After incubation for 30 minutes at room temperature, the reaction is stopped by the addition of 5 μl of stop solution containing EDTA and biotinylated phosphatidylinositol-3,4,5-trisphosphate. Finally, 5 μl of detection buffer is added, which contains europium-labelled anti-GST monoclonal antibody, GST-tagged GRP1 PH domain and streptavidin-allophycocyanin. The plate is then read in time-resolved fluorescence mode and the homogenous time-resolved fluorescence (HTRF) signal is determined according to the formula HTRF=10000×(Em665 nm/Em620 nm).
Duplicate data points are generated from a ⅓ log dilution series of a stock solution of compound in DMSO. Nine dilutions steps are made from a top concentration of 10 μM, and a ‘no compound’ blank is included. The HTRF PI 3-Kinase assay is performed at an ATP concentration at, or close to, the Km. HTRF ratio data is transformed into % activity of controls and analysed with a four parameter sigmoidal dose-response (variable slope) application. QC criteria is based on Top, Bottom, Hill slope, r^2 and IC50, the concentration giving 50% inhibition, which is reported.
(§1) For each of the assays (B), (C) and (D) above, IC50 values are allocated to one of three ranges as follows: […]

human whole blood = assay: LPS-stimulation of human whole blood, TNF-α release; type: cell-based; conditions: LPS 100 ng/ml, 6 h, TNF-α by ELISA, IC50 range, read-out: Inhibitor activity versus human whole blood TNFα release
Procedure: (D) LPS-Stimulation of Human Whole Blood
Whole blood is taken by venous puncture using heparinised vacutainers (Becton Dickinson) and diluted in an equal volume of RPMI1640 tissue culture media (Sigma). 100 μl is plated in V-bottomed 96 well tissue culture treated plates. 2 h after the addition of the inhibitor in 100 μl of RPMI1640 media, the blood is stimulated with LPS (E. coli strain 005:B5, Sigma) at a final concentration of 100 ng/ml and incubated at 37° C. in 5% CO2 for 6 h. TNF-α levels are measured from cell-free supernatants by sandwich ELISA (R&D Systems #QTA00B)
as §1

THP-1 cells = assay: LPS-stimulation of THP-1 cells, TNF-α release; type: cell-based; conditions: Homo sapiens, LPS 1 μg/ml, 6 h, TNF-α by ELISA, IC50 range, read-out: Inhibitor activity versus THP-1 TNFα release
Procedure: (C) LPS-Stimulation of THP-1 Cells
THP-1 cells are plated in 100 μl at a density of 4×10^4 cells/well in V-bottomed 96 well tissue culture treated plates and incubated at 37° C. in 5% CO2 for 16 h. 2 h after the addition of the inhibitor in 100 μl of tissue culture media, the cells are stimulated with LPS (E. coli strain 005:B5, Sigma) at a final concentration of 1 μg/ml and incubated at 37° C. in 5% CO2 for 6 h. TNF-α levels are measured from cell-free supernatants by sandwich ELISA (R&D Systems #QTA00B)
as §1

PI3Kγ (human), sequence (P48736 whole entry): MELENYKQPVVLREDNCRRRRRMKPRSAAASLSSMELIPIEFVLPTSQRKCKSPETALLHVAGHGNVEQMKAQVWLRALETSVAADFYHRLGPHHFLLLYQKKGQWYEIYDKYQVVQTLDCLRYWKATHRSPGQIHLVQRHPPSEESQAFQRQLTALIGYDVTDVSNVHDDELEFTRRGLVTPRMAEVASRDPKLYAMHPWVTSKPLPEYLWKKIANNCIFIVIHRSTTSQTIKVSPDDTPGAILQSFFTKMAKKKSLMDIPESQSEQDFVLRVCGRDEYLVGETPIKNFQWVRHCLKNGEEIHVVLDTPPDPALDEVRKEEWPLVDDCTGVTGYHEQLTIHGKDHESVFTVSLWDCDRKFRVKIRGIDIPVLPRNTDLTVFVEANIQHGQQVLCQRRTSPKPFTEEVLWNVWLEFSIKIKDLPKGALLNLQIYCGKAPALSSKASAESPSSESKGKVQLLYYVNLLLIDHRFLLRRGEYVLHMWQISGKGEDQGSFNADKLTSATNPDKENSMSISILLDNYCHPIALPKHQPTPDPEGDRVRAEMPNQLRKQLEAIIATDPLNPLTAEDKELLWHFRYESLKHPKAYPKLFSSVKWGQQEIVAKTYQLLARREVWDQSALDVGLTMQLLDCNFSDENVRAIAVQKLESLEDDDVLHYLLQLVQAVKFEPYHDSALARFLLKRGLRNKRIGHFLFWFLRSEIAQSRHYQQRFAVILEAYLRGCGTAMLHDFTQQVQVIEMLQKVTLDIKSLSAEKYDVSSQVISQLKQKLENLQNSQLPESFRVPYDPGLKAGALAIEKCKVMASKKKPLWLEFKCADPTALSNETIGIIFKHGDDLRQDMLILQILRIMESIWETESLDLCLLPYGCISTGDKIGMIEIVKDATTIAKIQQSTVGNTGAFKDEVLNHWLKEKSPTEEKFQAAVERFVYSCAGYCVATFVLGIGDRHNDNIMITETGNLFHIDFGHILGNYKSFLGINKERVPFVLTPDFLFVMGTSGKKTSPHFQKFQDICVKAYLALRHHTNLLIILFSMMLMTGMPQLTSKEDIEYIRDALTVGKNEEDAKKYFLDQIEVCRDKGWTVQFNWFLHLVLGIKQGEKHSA

Row | Compound | IC50 (PI3Kγ (human)) | IC50 (human whole blood) | IC50 (THP-1 cells)
1 | Cc1nc(NC(=O)CCCN[C@@H](CC(C)C)C(=O)OC2CCCC2)sc1-c1ccc(Cl)c(S(C)(=O)=O)c1 [Example 6, Cyclopentyl N-[4-({5-[4-chloro-3-(methylsulfonyl)phenyl]-4-methyl-1,3-thiazol-2-yl}amino)-4-oxobutyl]-L-leucinate] | 0.1 to 1 µM | > 1 µM | 0.1 to 1 µM
2 | Cc1nc(NC(=O)CCCN[C@@H](C)C(=O)OC2CCCC2)sc1-c1ccc(Cl)c(S(C)(=O)=O)c1 [Example 7, Cyclopentyl N-[4-({5-[4-chloro-3-(methylsulfonyl)phenyl]-4-methyl-1,3-thiazol-2-yl}amino)-4-oxobutyl]-L-alaninate] | > 1 µM | 0.1 to 1 µM | 0.1 to 1 µM
3 | Cc1nc(NCCCN[C@@H](CC(C)C)C(=O)OC2CCCC2)sc1-c1ccc(Cl)c(S(C)(=O)=O)c1 [Example 17, Cyclopentyl N-[3-({5-[4-chloro-3-(methylsulfonyl)phenyl]-4-methyl-1,3-thiazol-2-yl}amino)propyl]-L-leucinate] | > 1 µM | – | > 1 µM
4 | Cc1nc(NCC2CCC(N[C@@H](CC(C)C)C(=O)OC3CCCC3)CC2)sc1-c1ccc(Cl)c(S(C)(=O)=O)c1 (stereo partly drawn) [Example 18, Cyclopentyl N-{4-[({5-[4-chloro-3-(methylsulfonyl)phenyl]-4-methyl-1,3-thiazol-2-yl}amino)methyl]cyclohexyl}-L-leucinate] | > 1 µM | – | > 1 µM
5 | Cc1nc(NCC2CCC(N[C@@H](CC(C)C)C(=O)OC(C)(C)C)CC2)sc1-c1ccc(Cl)c(S(C)(=O)=O)c1 (stereo partly drawn) [Example 19, tert-Butyl N-{4-[({5-[4-chloro-3-(methylsulfonyl)phenyl]-4-methyl-1,3-thiazol-2-yl}amino)methyl]cyclohexyl}-L-leucinate] | > 1 µM | – | > 1 µM
6 | CC(=O)Nc1nc(C)c(-c2ccc(Cl)c(S(=O)(=O)N[C@@H](C)C(=O)OC3CCCC3)c2)s1 [Example 20, Cyclopentyl N-{[5-(2-acetamido-4-methyl-1,3-thiazol-5-yl)-2-chlorophenyl]sulfonyl}-L-alaninate] | < 0.1 µM | – | > 1 µM
7 | CC(=O)Nc1nc(C)c(-c2ccc(Cl)c(S(=O)(=O)N[C@@H](COC(C)(C)C)C(=O)OC3CCCC3)c2)s1 [Example 21, Cyclopentyl N-{[5-(2-acetamido-4-methyl-3-thiazol-5-yl)-2-chlorophenyl]sulfonyl}-O-tert-butyl-L-serinate] | 0.1 to 1 µM | – | > 1 µM
8 | CC(=O)Nc1nc(C)c(-c2ccc(Cl)c(S(=O)(=O)NCCN[C@@H](CC(C)C)C(=O)OC3CCCC3)c2)s1 [Example 22, Cyclopentyl N-[2-({[5-(2-acetamido-4-methyl-1,3-thiazol-5-yl)-2-chlorophenyl]sulfonyl}amino)ethyl]-L-leucinate] | > 1 µM | – | > 1 µM
9 | Cc1nc(NC(=O)N[C@@H](CO)C(=O)OC2CCCC2)sc1-c1ccc(Cl)c(S(C)(=O)=O)c1 [Example 23, Cyclopentyl N-({5-[4-chloro-3-(methylsulfonyl)phenyl]-4-methyl-1,3-thiazol-2-yl}carbamoyl)-L-serinate] | > 1 µM | – | > 1 µM
10 | Cc1nc(NC(=O)CCCN[C@@H](CO)C(=O)OC2CCCC2)sc1-c1ccc(Cl)c(S(C)(=O)=O)c1 [Example 24, Cyclopentyl N-[4-({5-[4-chloro-3-(methylsulfonyl)phenyl]-4-methyl-1,3-thiazol-2-yl}amino)-4-oxobutyl]-L-serinate] | > 1 µM | 0.1 to 1 µM | < 0.1 µM
11 | CC(=O)Nc1nc(C)c(-c2ccc(Cl)c(S(=O)(=O)N[C@@H](CO)C(=O)OC3CCCC3)c2)s1 [Example 25, Cyclopentyl N-{[5-(2-acetamido-4-methyl-1,3-thiazol-5-yl)-2-chlorophenyl]sulfonyl}-L-serinate] | 0.1 to 1 µM | – | > 1 µM
12 | Cc1nc(NC(=O)CCCN[C@@H](COP(=O)(O)O)C(=O)OC2CCCC2)sc1-c1ccc(Cl)c(S(C)(=O)=O)c1 [Example 26, Cyclopentyl N-[4-({5-[4-chloro-3-(methylsulfonyl)phenyl]-4-methyl-1,3-thiazol-2-yl}amino)-4-oxobutyl]-O-phosphono-L-serinate] | < 0.1 µM | – | > 1 µM
